Columns and labels:
KIR6.2/NMT 55-SUR2A = experiment: Inside-out patch-clamp potassium current, ATP sensitivity; assay type: cell-based, mouse; details: 100 μM ATP, COS1 cells containing KIR6.2/NMT 55-SUR2A, 0 mV, room temperature (FIG. 3C)
Experimental: (§1) Cellular Electrophysiology: Electrophysiology experiments were carried out as previously described by Chutkow el al., with modifications. Chutkow W, et al., “Alternative splicing of sur2 Exon 17 regulates nucleotide sensitivity of the ATP-sensitive potassium channel,” J. Biol. Chem. 274:13656-13665 (1999). Briefly, KIR^6.2 was sub-cloned to 5′ of a bicistronic vector (pIRGFP, as pNQ56.) to express the desired NMT-SUR2 short forms and GFP under control of a cytomegalovirus promoter. The KIR6.2 construct was transiently expressed in COS1 cell lines that stably expressed NMT 55-SUR2A or NMT 55-SUR2B. Cells expressing GFP were used for cellular electrophysiological analysis.
(§2) Potassium currents were measured at room temperature (˜22-25° C.) by an inside-out patch-clamp technique. The bath solution (cytoplasmic side) comprised the following: 140 mM KCl, 2 mM cthylene glycol-bis(β-aminioethyl ether)-N,N,N′,N′-tetraacetic acid (EGTA), 5.5 mM glucose and 5 mM N-2-hydroxyethylpiperazine-N′-2-ethanesulfonic acid (HEPES) with pH 7.3. The pH was adjusted to the designated values using KOH or HCl. 100 μM K2ATP (Sigma) was used to test the ATP sensitivity, and the ATP-containing solutions were freshly prepared. […] Signals were recorded continuously at 0 mV using a patch-clamp amplifier (Axopatch 200; Molecular Devices; Toronto, Canada) and Clampex 10.0 software (Molecular Devices).

KIR6.2/NMT 55-SUR2B = experiment: as above; assay type: cell-based, mouse; details: 100 μM ATP, COS1 cells containing KIR6.2/NMT 55-SUR2B, 0 mV, room temperature (FIG. 4C)
Experimental: as §1, §2

KIR6.2 (mouse) = KIR6.2 (mouse) (UniProt Q61743); experiment: cell-based or functional assay
Sequence of UniProt Q61743 (Q61743 whole entry): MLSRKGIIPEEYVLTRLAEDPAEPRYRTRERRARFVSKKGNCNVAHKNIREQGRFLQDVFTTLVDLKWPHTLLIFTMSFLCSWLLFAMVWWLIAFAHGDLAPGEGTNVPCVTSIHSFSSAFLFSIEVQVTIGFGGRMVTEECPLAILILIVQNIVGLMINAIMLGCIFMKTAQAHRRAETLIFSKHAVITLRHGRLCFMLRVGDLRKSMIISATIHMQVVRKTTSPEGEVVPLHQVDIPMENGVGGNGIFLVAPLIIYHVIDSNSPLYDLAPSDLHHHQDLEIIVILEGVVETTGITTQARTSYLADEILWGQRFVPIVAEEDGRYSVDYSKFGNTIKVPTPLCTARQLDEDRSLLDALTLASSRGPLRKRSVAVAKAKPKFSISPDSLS

Row | growth of E. coli K+ uptake mutant 6106 in M9 minimal medium pH 5.5 (KIR6.2 (mouse)) [%] | Compound | IKATP-like current (KIR6.2/NMT 55-SUR2A) | IKATP-like current (KIR6.2/NMT 55-SUR2B)
1 | – | Nc1ncnc2c1ncn2[C@@H]1O[C@H](COP(=O)([O-])OP(=O)(O)OP(=O)([O-])O)[C@@H](O)[C@H]1O.[K+].[K+] [ATP] | inhibited | inhibited
2 | 12 | SUR2B short form (~55 kDa) (from UniProt P70170 1-1504) | – | –
